Measurements published in the NIST ThermoML archive (doi:10.1021/je300382a).
Numbers after ± are expanded uncertainties.

Experiments:
[1] = Ring tensiometer
[2] = refractive index (Na D-line) (dimensionless); details: 101.33 kPa, Liquid, Standard Abbe refractometry
[3] = xn = mol fraction of the nth substance listed; details: Ring tensiometer, x2 = 0
[4] = refractive index (Na D-line) (dimensionless); xn = mol fraction of the nth substance listed; details: 101 kPa, Liquid, Standard Abbe refractometry, x2 = 0

Row | SMILES | surface tension liquid-gas ([1]; 283.15 K) [mN/m] | surface tension liquid-gas ([1]; 293.15 K) [mN/m] | surface tension liquid-gas ([1]; 303.15 K) [mN/m] | surface tension liquid-gas ([1]; 313.15 K) [mN/m] | surface tension liquid-gas ([1]; 323.15 K) [mN/m] | refractive index ([2]; 283.15 K) | refractive index ([2]; 293.15 K) | refractive index ([2]; 303.15 K) | refractive index ([2]; 313.15 K) | refractive index ([2]; 323.15 K) | surface tension liquid-gas ([3]; 283.15 K) [mN/m] | surface tension liquid-gas ([3]; 293.15 K) [mN/m] | surface tension liquid-gas ([3]; 303.15 K) [mN/m] | surface tension liquid-gas ([3]; 313.15 K) [mN/m] | surface tension liquid-gas ([3]; 323.15 K) [mN/m] | refractive index ([4]; 283.15 K) | refractive index ([4]; 293.15 K) | refractive index ([4]; 303.15 K) | refractive index ([4]; 313.15 K) | refractive index ([4]; 323.15 K)
1 | CC(N)CN (stereo not given) [1,2-propanediamine] | 35 ± 0.5 | 33.8 ± 0.5 | 32.7 ± 0.5 | 31.4 ± 0.5 | 30.3 ± 0.5 | 1.451 ± 0.0004 | 1.4458 ± 0.0004 | 1.4409 ± 0.0004 | 1.4362 ± 0.0004 | 1.4314 ± 0.0004 | – | – | – | – | – | – | – | – | – | –
2 | NCc1ccccc1 [benzylamine] | 37.9 ± 0.6 | 37.1 ± 0.5 | 36.3 ± 0.5 | 35.6 ± 0.5 | 35 ± 1 | 1.5516 ± 0.0004 | 1.5445 ± 0.0004 | 1.5393 ± 0.0004 | 1.5328 ± 0.0004 | 1.5279 ± 0.0004 | – | – | – | – | – | – | – | – | – | –
3 | O [water] + CC(N)CN | – | – | – | – | – | – | – | – | – | – | 74.2 ± 0.9 | 72.6 ± 0.9 | 71.3 ± 0.9 | 69.2 ± 0.9 | 67.7 ± 0.9 | 1.3343 ± 0.0003 | 1.333 ± 0.0003 | 1.3319 ± 0.0003 | 1.3306 ± 0.0003 | 1.329 ± 0.0003
4 | O [water] + NCc1ccccc1 | – | – | – | – | – | – | – | – | – | – | 74.2 ± 0.9 | 72.6 ± 0.9 | 71.1 ± 0.9 | 69.2 ± 0.9 | 67.7 ± 0.9 | 1.3343 ± 0.0003 | 1.333 ± 0.0003 | 1.3319 ± 0.0003 | 1.3306 ± 0.0003 | 1.329 ± 0.0003
